Target: T1, ALDH1 (Homo sapiens, UniProt P00352)
T1 construct: Purification of native ALDH1, QR2 and QR1; RBC extract was prepared as described above and applied to PQ-Sepharose; tissue Valley Biomedical (blood); host or cells: human red blood cells
T1 sequence (P00352 1-501): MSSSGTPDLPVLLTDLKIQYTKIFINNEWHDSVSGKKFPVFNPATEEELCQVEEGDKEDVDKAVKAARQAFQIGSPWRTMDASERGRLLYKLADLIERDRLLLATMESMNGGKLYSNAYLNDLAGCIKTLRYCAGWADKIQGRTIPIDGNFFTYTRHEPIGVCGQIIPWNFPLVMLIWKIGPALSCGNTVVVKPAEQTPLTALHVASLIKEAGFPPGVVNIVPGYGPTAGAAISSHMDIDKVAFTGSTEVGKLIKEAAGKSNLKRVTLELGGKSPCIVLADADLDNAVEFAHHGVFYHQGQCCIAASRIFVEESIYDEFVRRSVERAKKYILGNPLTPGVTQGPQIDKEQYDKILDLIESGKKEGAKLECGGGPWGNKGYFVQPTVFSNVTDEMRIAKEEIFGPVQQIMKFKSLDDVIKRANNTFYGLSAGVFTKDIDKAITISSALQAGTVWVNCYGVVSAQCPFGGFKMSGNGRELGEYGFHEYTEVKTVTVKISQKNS
Assay: hALDH1 HPLC-based activity assay (Example 1)
Format: biochemical
Procedure: ATP-affinity array chromatography. In whole mouse experiments, the animal (except for its tail, feet, skin and intestines) was frozen in liquid N2 and blended in buffer A containing 50 mM Hepes, pH 7.5, 50 mM NaCl, 10 mM MgCl2, 0.1% NONIDET- P40, 1 mM dithiothreitol, 1 μg/ml leupeptin, 100 μg/ml pefabloc and 10 μg/ml aprotinin. Mouse lysate was clarified by centrifugation for 1 hr at 100,000×g. For infected and non-infected RBC's˜1.5×10^9 cells were mixed with an equal volume of 2×buffer A, rocked for 30 min at 4° C., and clarified by centrifugation for 1 hr at 100,000×g. Supernatants were dialyzed overnight against 50 mM Hepes, pH 7.5, 50 mM NaCl, 10 mM MgCl2 and 1 mM dithiothreitol. […] Proteins were resolved by 12% SDS-PAGE and visualized by staining either with Coomassie brilliant Blue R-250 or silver nitrate. Alternatively, proteins were transferred to membrane GeneMate (Kaysville, Utah) in transfer buffer (25 mM Tris, 200 mM glycine, 20% methanol, and 0.01% SDS) for mixed peptide sequencing (Damer et al, J. Biol. Chem. 273:24396 (1998)). hALDH 1 and hQR2 purification and activity assays. Fresh human red blood cells (RBC) were obtained from Valley Biomedical, washed twice with PBS, and lysed in buffer B (0.1% Triton X, 50 mM Tris pH 7.5, 125 mM NaCl, 1 μg/mL aprotonin, 1 μg/mL pepstatin and 10 μg/mL PEFABLOC). […]
Values for hALDH1 were determined by HPLC assay. […]

- ALDH activity (0.5 mM CQ, ALDH alone 48.42 ± 9.3 pmol): 26.62 ± 6.1 pmol
- inhibition of hALDH1 activity (in the presence of physiological [NADH]): relatively weak inhibitor
Compound: CCN(CC)CCCC(C)Nc1ccnc2cc(Cl)ccc12 (centres unmarked) [CQ, chloroquine]
